Experimental data: patent US8354539B2, “Indole derivatives as IKK2 inhibitors” (Glaxo Group Limited, priority 2009, dated 2013)

Columns and labels:
[1] = target: T1, Recombinant human IKKβ (IKK2) (Homo sapiens, UniProt O14920); experiment: IKK2 assay (TR-FRET); type: biochemical; settings: read-out: pIC50 potency against IKK2 (converted)
T1 construct: Recombinant human IKKβ (residues 5-756); GST (C); made in house
T1 sequence (O14920 5-756): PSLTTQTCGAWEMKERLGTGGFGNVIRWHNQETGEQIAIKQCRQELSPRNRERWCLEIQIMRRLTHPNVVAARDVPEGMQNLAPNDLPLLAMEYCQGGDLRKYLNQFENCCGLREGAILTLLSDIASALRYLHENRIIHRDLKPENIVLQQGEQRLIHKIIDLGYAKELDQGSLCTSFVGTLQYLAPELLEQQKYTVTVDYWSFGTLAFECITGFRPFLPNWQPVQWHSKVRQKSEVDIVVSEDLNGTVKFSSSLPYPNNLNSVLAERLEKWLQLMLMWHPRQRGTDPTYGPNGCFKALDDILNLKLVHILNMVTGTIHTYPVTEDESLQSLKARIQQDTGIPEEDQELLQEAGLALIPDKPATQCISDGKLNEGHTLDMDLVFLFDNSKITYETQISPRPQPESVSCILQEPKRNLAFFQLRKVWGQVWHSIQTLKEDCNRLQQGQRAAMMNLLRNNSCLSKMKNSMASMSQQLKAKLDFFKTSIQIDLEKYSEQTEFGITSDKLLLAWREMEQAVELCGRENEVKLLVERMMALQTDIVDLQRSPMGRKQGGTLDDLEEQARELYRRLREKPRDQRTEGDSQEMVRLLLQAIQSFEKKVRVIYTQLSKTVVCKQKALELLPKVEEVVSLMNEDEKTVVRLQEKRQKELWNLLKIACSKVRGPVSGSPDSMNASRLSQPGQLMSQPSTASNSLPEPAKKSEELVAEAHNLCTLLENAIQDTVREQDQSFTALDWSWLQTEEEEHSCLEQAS
Experimental: Recombinant human IKKβ (residues 5-756) was expressed in baculovirus as a C-terminal GST-tagged fusion protein, and its activity was assessed using a time-resolved fluorescence resonance energy transfer (TR-FRET) assay. Briefly, IKKβ (0.5-4 nM final concentration) diluted in assay buffer (50 mM HEPES, 10 mM MgCl2, 1 mM CHAPS pH 7.4 with 1 mM DTT and 0.01% w/v BSA) was added to wells containing various concentrations of compound or DMSO vehicle (1.7% v/v final). The reaction was initiated by the addition of GST-IkappaBalpha substrate (25 nM final)/ATP (1 μM final), in a total volume of 6 μl. The reaction was incubated for 15 mins at room temperature, then terminated by the addition of 3 μl of 50 mM EDTA in buffer (100 mM HEPES pH 7.4, 150 mM NaCl and 0.1% w/v BSA) containing antiphosphoserine-IkappaBalpha-32/36 monoclonal antibody clone 12C2 (Cell Signalling Technology, Beverly Mass., USA) labelled with W-1024 europium chelate (Wallac O Y, Turku, Finland), and an APC-labelled anti-GST antibody (Prozyme, San Leandro, Calif., USA). The reaction was further incubated for 60 mins at room temperature and the degree of phosphorylation of GST-IkappaBalpha measured using a Rubystar plate reader (BMG Instruments, Aylesbury, UK) as a ratio of specific 665 nm energy transfer signal to reference europium 620 nm signal.

Recombinant human IKK1 = target: T2, Recombinant human IKK1 (Homo sapiens, UniProt O15111); experiment: IKK1 time-resolved fluorescence resonance energy transfer assay; type: biochemical; settings: IKK2 assay and IKK2 time dependent assay versus IKK1 TR-FRET assay
T2 construct: Recombinant human IKK1 (residues 1-785); 6HIS (C); made in house
T2 sequence (O15111 1-745): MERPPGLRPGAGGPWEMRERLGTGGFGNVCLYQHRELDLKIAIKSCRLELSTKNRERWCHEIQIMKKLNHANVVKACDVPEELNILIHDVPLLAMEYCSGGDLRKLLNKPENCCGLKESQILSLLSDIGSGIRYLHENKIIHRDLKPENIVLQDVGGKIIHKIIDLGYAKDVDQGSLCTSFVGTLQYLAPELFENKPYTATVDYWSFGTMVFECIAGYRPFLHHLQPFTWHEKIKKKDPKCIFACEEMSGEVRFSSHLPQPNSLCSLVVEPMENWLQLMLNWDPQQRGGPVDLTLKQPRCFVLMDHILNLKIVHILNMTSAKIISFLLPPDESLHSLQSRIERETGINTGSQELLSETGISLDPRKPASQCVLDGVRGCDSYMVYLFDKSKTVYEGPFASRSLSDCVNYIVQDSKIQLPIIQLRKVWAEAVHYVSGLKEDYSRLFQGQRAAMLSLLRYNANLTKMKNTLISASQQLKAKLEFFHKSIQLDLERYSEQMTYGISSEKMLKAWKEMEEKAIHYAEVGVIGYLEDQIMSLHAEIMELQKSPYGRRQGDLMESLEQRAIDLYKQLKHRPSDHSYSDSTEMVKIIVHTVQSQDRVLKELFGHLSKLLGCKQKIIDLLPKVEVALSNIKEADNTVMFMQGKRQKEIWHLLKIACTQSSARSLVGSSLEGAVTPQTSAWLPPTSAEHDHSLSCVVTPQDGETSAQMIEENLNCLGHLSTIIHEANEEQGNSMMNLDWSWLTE
Experimental: Recombinant human IKK1 (residues 1-785) was expressed in baculovirus as a C-terminal 6HIS-tagged fusion protein, and its activity was assessed using a time-resolved fluorescence resonance energy transfer (TR-FRET) assay. Briefly, IKK1 (typically 5-10 nM final) diluted in assay buffer (50 mM HEPES, 10 mM MgCl2, 1 mM CHAPS pH 7.4 with 1 mM DTT and 0.01% w/v BSA) was added to wells containing various concentrations of compound or DMSO vehicle (1.7% v/v final). The reaction was initiated by the addition of GST-IκBα substrate (25 nM final)/ATP (1 μM final), in a total volume of 6 μl. The reaction was incubated for 15 minutes at room temperature, then terminated by the addition of stop reagent (3 μl) containing 50 mM EDTA and detection reagents in buffer (100 mM HEPES pH 7.4, 150 mM NaCl and 0.01% w/v BSA). […] The degree of phosphorylation of GST-IκBα was measured using a suitable time-resolved fluorimeter such as Packard Discovery (Perkin-Elmer Life Sciences, Pangbourne, Berkshire, UK), Wallac Viewlux (Perkin-Elmer Life Sciences, Pangbourne, Berkshire, UK), Envision (Perkin-Elmer Life Sciences, Pangbourne, Berkshire, UK), or Rubystar (BMG, Aylesbury, Buckinghamshire, UK) as a ratio of specific 665 nm energy transfer signal to reference europium 620 nm signal.

SMILES: COCCS(=O)(=O)N1CCC(c2c[nH]c3c(C(N)=O)cc(-c4ccc5c(c4)CN(C(C)C)C5)cc23)CC1 [Compound of formula (I), 5-[2-(1-methylethyl)-2,3-dihydro-1H-isoindol-5-yl]-3-(1-{[2-(methyloxy)ethyl]sulfonyl}-4-piperidinyl)-1H-indole-7-carboxamide]
- IC50 [1]: < 100 nM
- potency at IKK2 relative to IKK1 (Recombinant human IKK1): inhibited IKK2 with greater potency than IKK1
